Patent US10519134B2, “Pyrazole compounds and methods of making and using same” (Lundbeck La Jolla Research Center, Inc., priority 2015, dated 2019)

Columns and labels:
MAGL = biological target: T1, MAGL (Mus musculus, UniProt O35678); experiment: In vitro competitive activity-based protein profiling (mouse), MAGL gel band; type: biochemical; settings: for inhibition at 1 µM: read-out: MAGL % inh. 1 μM; for IC50: mouse
T1 construct: Proteomes (mouse brain membrane fraction or cell lysates); from tissue; host or cells: mouse brain membrane fraction (or cell lysates)
T1 sequence (O35678 1-303): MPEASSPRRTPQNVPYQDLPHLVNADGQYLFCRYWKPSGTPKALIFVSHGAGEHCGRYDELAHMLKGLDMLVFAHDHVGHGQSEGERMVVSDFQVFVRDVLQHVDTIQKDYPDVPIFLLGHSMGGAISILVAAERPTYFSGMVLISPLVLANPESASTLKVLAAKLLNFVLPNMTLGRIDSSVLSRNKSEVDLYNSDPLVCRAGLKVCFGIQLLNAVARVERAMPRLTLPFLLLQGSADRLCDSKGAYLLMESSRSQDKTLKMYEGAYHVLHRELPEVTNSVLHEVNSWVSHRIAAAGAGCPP
In short: (§1)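 Competitive ABPP: inhibitors at varying concentrations were given 30 min at 37 °C with mouse brain membranes or cell lysates (1.0 mg/mL total protein) before 30 min labelling by FP-Rh or HT-01 (stock 50 μM in DMSO). Residual hydrolase activity read as in-gel fluorescence of MAGL and FAAH bands.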

FAAH = biological target: T2, FAAH (Mus musculus, UniProt O08914); experiment: In vitro competitive activity-based protein profiling (mouse), FAAH gel band; type: biochemical; settings: for inhibition at 1 µM: read-out: FAAH % inh. 1 μM; for IC50: mouse
T2 construct: Proteomes (mouse brain membrane fraction or cell lysates); from tissue; host or cells: mouse brain membrane fraction (or cell lysates)
T2 sequence (O08914 1-579): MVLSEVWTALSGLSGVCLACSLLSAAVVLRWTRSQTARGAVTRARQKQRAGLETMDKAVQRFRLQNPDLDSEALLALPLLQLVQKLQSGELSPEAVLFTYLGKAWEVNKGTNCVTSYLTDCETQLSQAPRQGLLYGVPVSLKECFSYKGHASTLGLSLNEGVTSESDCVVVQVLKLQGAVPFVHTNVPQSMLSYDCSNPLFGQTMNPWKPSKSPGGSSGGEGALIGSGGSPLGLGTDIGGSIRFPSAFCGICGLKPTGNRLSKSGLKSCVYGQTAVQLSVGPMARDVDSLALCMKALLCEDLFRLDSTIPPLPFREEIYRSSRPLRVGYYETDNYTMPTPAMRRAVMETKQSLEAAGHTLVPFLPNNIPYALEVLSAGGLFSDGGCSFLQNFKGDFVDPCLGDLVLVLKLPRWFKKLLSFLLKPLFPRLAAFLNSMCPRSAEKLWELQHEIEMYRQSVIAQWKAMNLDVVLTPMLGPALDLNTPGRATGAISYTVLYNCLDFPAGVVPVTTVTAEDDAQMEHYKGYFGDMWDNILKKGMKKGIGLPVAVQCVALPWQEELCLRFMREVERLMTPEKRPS
In short: as §1

Row | SMILES | inhibition at 1 µM (MAGL) [%] | inhibition at 1 µM (FAAH) [%] | IC50 (MAGL) [nM] | IC50 (FAAH) [nM]
1 | CS(=O)(=O)Nc1ccn(C(=O)N2CCC3(CCCN3Cc3cc(N4CCCC4)cc(C(F)(F)F)c3)CC2)n1 [Example 163, N-(1-(1-(3-(pyrrolidin-1-yl)-5-(trifluoromethyl)benzyl)-1,8-diazaspiro[4.5]decane-8-carbonyl)-1H-pyrazol-3-yl) methanesulfonamide] | ≥ 75 | 0 to 25 |  | 
2 | CS(=O)(=O)Nc1ccn(C(=O)N2CCC3(CCCN3Cc3ccc(N4CCOCC4)cc3C(F)(F)F)CC2)n1 [Example 164, N-(1-(1-(4-morpholino-2-(trifluoromethyl)benzyl)-1,8-diazaspiro[4.5]decane-8-carbonyl)-1H-pyrazol-3-yl)methanesulfonamide] | 0 to 25 | 0 to 25 |  | 
3 | CS(=O)(=O)Nc1ccn(C(=O)N2CCN(Cc3ccc(C(F)(F)F)c(N4CCOCC4)c3)CC2)n1 [Example 168, N-(1-(4-(3-morpholino-4-(trifluoromethyl)benzyl)piperazine-1-carbonyl)-1H-pyrazol-3-yl) methanesulfonamide] | ≥ 75 | 0 to 25 |  | 
4 | CS(=O)(=O)Nc1ccn(C(=O)N2CCN(Cc3ccc(N4CCC(C(=O)O)CC4)c(C(F)(F)F)c3)CC2)n1 [Example 169, 1-(4-((4-(3-(methylsulfonamido)-1H-pyrazole-1-carbonyl)piperazin-1-yl)methyl)-2-(trifluoromethyl)phenyl)piperidine-4-carboxylic acid] | 0 to 25 | 0 to 25 |  | 
5 | CS(=O)(=O)Nc1ccn(C(=O)N2CCN(Cc3ccc(N4CCOCC4)c(Cl)c3)CC2)n1 [Example 170, N-(1-(4-(3-chloro-4-morpholinobenzyl)piperazine-1-carbonyl)-1H-pyrazol-3-yl) methanesulfonamide] | 25 to 50 | 0 to 25 |  | 
6 | CS(=O)(=O)Nc1ccn(C(=O)N2CCN(Cc3cc(Cl)cc(C(F)(F)F)c3)CC2)n1 [Example 176, N-(1-(4-(3-chloro-5-(trifluoromethyl)benzyl)piperazine-1-carbonyl)-1H-pyrazol-3-yl) methanesulfonamide] | ≥ 75 | 0 to 25 |  | 
7 | CS(=O)(=O)Nc1ccn(C(=O)N2CCN(Cc3cc(C(F)(F)F)cc(C(F)(F)F)c3)CC2)n1 [Example 177, N-(1-(4-(3,5-bis(trifluoromethyl)benzyl)piperazine-1-carbonyl)-1H-pyrazol-3-yl) methanesulfonamide] | ≥ 75 | 0 to 25 |  | 
8 | CS(=O)(=O)Nc1ccn(C(=O)N2CCN(Cc3cc(Cl)ccc3N3CCCC3)CC2)n1 [Example 179, N-(1-(4-(5-chloro-2-(pyrrolidin-1-yl)benzyl)piperazine-1-carbonyl)-1H-pyrazol-3-yl) methanesulfonamide] | ≥ 75 | 0 to 25 |  | 
9 | CS(=O)(=O)Nc1ccn(C(=O)N2CCN(Cc3cc(N4CCOCC4)ccc3C(F)(F)F)CC2)n1 [Example 181, N-(1-(4-(5-morpholino-2-(trifluoromethyl)benzyl)piperazine-1-carbonyl)-1H-pyrazol-3-yl) methanesulfonamide] | 50 to 75 | 0 to 25 |  | 
10 | CS(=O)(=O)Nc1ccn(C(=O)N2CCN(C(c3ccc(Cl)cc3)c3ccc(Cl)cc3)CC2)n1 [Example 182, N-(1-(4-(bis(4-chlorophenyl)methyl)piperazine-1-carbonyl)-1H-pyrazol-3-yl) methanesulfonamide] | 0 to 25 | 0 to 25 |  | 
11 | CS(=O)(=O)Nc1ccn(C(=O)N2CCN(Cc3ccc(-c4ccccc4)cc3OCc3ccccc3)CC2)n1 [Example 183, N-(1-(4-((3-(benzyloxy)-[1,1′-biphenyl]-4-yl)methyl)piperine-1-carbonyl)-1H-pyrazol-3-yl) methanesulfonamide] | ≥ 75 | 0 to 25 |  | 
12 | Cn1ncc2cc(CN3CCN(C(=O)n4ccc(NS(C)(=O)=O)n4)CC3)ccc21 [Example 184, N-(1-(4-((1-methyl-1H-indazol-5-yl)methyl)piperazine-1-carbonyl)-1H-pyrazol-3-yl) methanesulfonamide] | 25 to 50 | 0 to 25 |  | 
13 | CC(=O)Nc1ccn(C(=O)N2CCC3(CCCN3Cc3ccc4c(ccn4C)c3)CC2)n1 [Example 185, N-(1-(1-((1-methyl-1H-indol-5-yl)methyl)-1,8-diazaspiro[4.5]decane-8-carbonyl)-1H-pyrazol-3-yl)acetamide] | ≥ 75 | 0 to 25 | 1000 to 10000 | 1000 to 10000
14 | CS(=O)(=O)Nc1ccn(C(=O)N2CCN(Cc3cc(N4CCCC4)ccc3C(F)(F)F)CC2)n1 [Example 195, N-(1-(4-(5-(pyrrolidin-1-yl)-2-(trifluoromethyl)benzyl)piperazine-1-carbonyl)-1H-pyrazol-3-yl) methanesulfonamide] | ≥ 75 | 0 to 25 |  | 
15 | CS(=O)(=O)Nc1ccn(C(=O)N2CCN(Cc3ccc(Cl)c(-c4nnn[nH]4)c3)CC2)n1 [Example 214, N-(1-(4-(4-chloro-3-(1H-tetrazol-5-yl)benzyl)piperazine-1-carbonyl)-1H-pyrazol-3-yl) methanesulfonamide] | 0 to 25 | 0 to 25 |  | 
16 | CN1CCC(Oc2cc(CN3CCN(C(=O)n4ccc(NS(C)(=O)=O)n4)CC3)ccc2Cl)CC1 [Example 220, N-(1-(4-(4-chloro-3-((1-methylpiperidin-4-yl)oxy)benzyl)piperazine-1-carbonyl)-1H-pyrazol-3-yl) methanesulfonamide] | 25 to 50 | 0 to 25 |  | 
17 | CC(=O)Nc1ccn(C(=O)N2CCN(Cc3ccc(C(F)(F)F)c(-c4nnn[nH]4)c3)CC2)n1 [Example 222, N-(1-(4-(3-(1H-tetrazol-5-yl)-4-(trifluoromethyl)benzyl)piperazine-1-carbonyl)-1H-pyrazol-3-yl)acetamide] | ≥ 75 | 0 to 25 | ≤ 100 | 1000 to 10000
18 | Cc1c(CN2CCCC23CCN(C(=O)n2ccc(NS(C)(=O)=O)n2)CC3)cccc1N1CCCC1 [Example 224, N-(1-(1-(2-methyl-3-(pyrrolidin-1-yl)benzyl)-1,8-diazaspiro[4.5]decane-8-carbonyl)-1H-pyrazol-3-yl) methanesulfonamide] | ≥ 75 | 0 to 25 | 1000 to 10000 | 1000 to 10000
19 | CN1CCN(c2c(Cl)cccc2CN2CCN(C(=O)n3ccc(NS(C)(=O)=O)n3)CC2)CC1 [Example 225, N-(1-(4-(3-chloro-2-(4-methylpiperazin-1-yl)benzyl)piperazine-1-carbonyl)-1H-pyrazol-3-yl) methanesulfonamide] | 0 to 25 | 0 to 25 |  | 
20 | Cc1c(CN2CCCC23CCN(C(=O)n2ccc(NS(C)(=O)=O)n2)CC3)cccc1N1CCOCC1 [Example 226, N-(1-(1-(2-methyl-3-morpholinobenzyl)-1,8-diazaspiro[4.5]decane-8-carbonyl)-1H-pyrazol-3-yl) methanesulfonamide] | 0 to 25 | 0 to 25 |  | 
21 | CCN1CCN(c2cc(C(F)(F)F)ccc2CN2CCCC23CCN(C(=O)n2ccc(NS(C)(=O)=O)n2)CC3)CC1 [Example 238, N-(1-(1-(2-(4-ethylpiperazin-1-yl)-4-(trifluoromethyl)benzyl)-1,8-diazaspiro[4.5]decane-8-carbonyl)-1H-pyrazol-3-yl) methanesulfonamide] | 0 to 25 | 0 to 25 |  | 
